Laboratory results taken from patent publication US10900063B2, “Measurement of Lp-PLA2 activity” (ASAHI KASEI PHARMA CORPORATION, priority 2016, dated 2021).

How the values were obtained:
Format in all cases: biochemical
Lp-PLA2 = biological target: T1, Lp-PLA2 (Homo sapiens, UniProt Q13093); assay: Lp-PLA2 activity measurement in serum/plasma with reagents of the invention (PAF substrate, lyso-PAF-PLD, choline oxidase, peroxidase colorimetry); conditions: Example 9; for Lp-PLA2 activity value / absorbance change per minute (sensitivity): 10 mM substrate in R2; for Relative activity: PAF(C16) = 100
T1 construct: Individual serum No. 16, individual serum No. 78; from tissue; host or cells: serum and plasma (individual sera, pooled sera, heparin and citrated pooled plasma)
T1 sequence (Q13093 22-441): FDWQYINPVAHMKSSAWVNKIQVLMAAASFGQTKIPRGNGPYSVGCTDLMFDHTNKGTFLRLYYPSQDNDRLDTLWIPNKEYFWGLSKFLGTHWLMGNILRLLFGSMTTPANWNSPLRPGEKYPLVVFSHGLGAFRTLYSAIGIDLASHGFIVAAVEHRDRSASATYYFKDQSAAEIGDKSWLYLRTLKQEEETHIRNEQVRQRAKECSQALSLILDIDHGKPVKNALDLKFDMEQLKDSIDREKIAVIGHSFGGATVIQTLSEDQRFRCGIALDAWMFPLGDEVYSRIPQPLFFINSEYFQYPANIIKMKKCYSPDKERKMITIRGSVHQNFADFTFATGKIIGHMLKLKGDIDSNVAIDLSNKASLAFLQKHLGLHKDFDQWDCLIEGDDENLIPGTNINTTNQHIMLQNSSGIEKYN
Method: Unless otherwise specified, in these examples the Method 1 described under 1) below is used for calculating Lp-PLA2 activity values. In these examples, (nmol/min/mL) is sometimes expressed as (U/L).
This is calculated by the following formula based on the absorbance change per minute (ΔmAbs/min) as calculated from absorbance at the measuring points and the millimolar extinction coefficient (ε=36) of TODB at 546 nm.
(§1) 4 μL of the sample was mixed with 160 μL of the R1 reagent, and incubated for 5 minutes at 37° C. (measuring points 1 to 16), after which 40 μL of the R2 reagent was added to initiate a reaction (measuring point 17). The absorbance of water (blank) at the same measuring points was subtracted from the absorbance of the sample about 3.6 to 4.5 minutes after the reaction was initiated by addition of the R2 reagent (measuring points 30 to 33) to calculate the absorbance change per minute (ΔmAbs/min), and the Lp-PLA2 activity value (nmol/min/mL) was calculated according to the previous formula.
[…] was mixed with 150 μL of the R1 reagent, and incubated for 5 minutes at 37° C. (measuring points 1 to 15), after which 100 μL of the R2 reagent was added to initiate a reaction (measuring point 16). The absorbance of water (blank) at the same measuring points was subtracted from the absorbance of the sample about 2 to 3 minutes after the reaction was initiated by addition of the R2 reagent (measuring points 23 to 26) to calculate the absorbance change per minute (ΔmAbs/min), and the Lp-PLA2 activity value (nmol/min/mL) was calculated according to the previous formula. The values for absorbance change per minute (sensitivity) (ΔmAbs/min) and the Lp-PLA2 activity values (nmol/min/mL) at each pH are shown in Tables 1 and 2.
(§2) 5 μL of sample was mixed with 150 μL of the R1 reagent, and incubated for 5 minutes at 37° C. (measuring points 1 to 15), after which 100 μL of the R2 reagent was added to initiate a reaction (measuring point 16). The absorbance of water (blank) at the same measuring points was subtracted from the absorbance of the sample about 3.5 to 4.5 minutes after the reaction was initiated by addition of the R2 reagent (measuring points 27 to 30) to calculate the absorbance change per minute (ΔmAbs/min), and the Lp-PLA2 activity value (nmol/min/mL) was calculated according to the previous formula. The values for absorbance change per minute (sensitivity) (ΔmAbs/min) and Lp-PLA2 activity (nmol/min/mL) and the relative activity for each substrate given 100 as the Lp-PLA2 activity value for PAF(C16) are shown in Tables 19 to 24.
Each sample was mixed with 160 μL of the R1 reagent, and incubated for 5 minutes at 37° C., (measuring points 1 to 15), after which 40 μL of the R2 reagent was added to initiate the reaction (measuring point 16). The absorbance of water (blank) at the same measuring points was subtracted from the absorbance of the sample about 3.5 to 4.5 minutes after the reaction was initiated by addition of the R2 reagent (measuring points 27 to 30) to calculate the absorbance change per minute (ΔmAbs/min), and the Lp-PLA2 activity value (nmol/min/mL) was calculated according to the previous formula. […]
as §1, with “(measuring” for “4 μL of the sample was mixed with 160 μL of the R1 reagent, and incubated for 5 minutes at 37° C. (measuring”, “100” for “40”, “3.5” for “3.6”, “29” for “30”, “32)” for “33)”

rLp-PLA2 = biological target: T2, rLp-PLA2 (Homo sapiens, UniProt Q13093, I42M); assay: Lp-PLA2 activity measurement with reagents of the invention, recombinant Lp-PLA2 as sample; conditions: Example 9, sample rLp-PLA2 (0.017 mg/mL); for Lp-PLA2 activity value / absorbance change per minute (sensitivity): 10 mM substrate in R2; for Relative activity: PAF(C16) = 100
T2 construct: histidine tag (from vector pET-19b) (N); made in house; host or cells: E. coli BL21(DE3), plasmid Lp-PLA2/pET-19b
T2 sequence (Q13093 42-441 I42M): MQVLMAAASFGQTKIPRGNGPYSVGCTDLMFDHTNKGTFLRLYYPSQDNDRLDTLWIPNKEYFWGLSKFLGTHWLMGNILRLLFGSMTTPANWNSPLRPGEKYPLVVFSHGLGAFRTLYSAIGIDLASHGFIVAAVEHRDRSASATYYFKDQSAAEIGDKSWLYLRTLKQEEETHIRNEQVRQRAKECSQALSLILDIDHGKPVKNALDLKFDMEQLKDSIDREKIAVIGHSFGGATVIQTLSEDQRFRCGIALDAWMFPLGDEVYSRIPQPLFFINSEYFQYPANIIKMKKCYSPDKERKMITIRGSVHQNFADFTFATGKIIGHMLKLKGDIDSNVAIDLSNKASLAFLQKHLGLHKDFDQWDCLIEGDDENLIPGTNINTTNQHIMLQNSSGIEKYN
Method: The recombinant Lp-PLA2 (rLp-PLA2) used in these examples was prepared in accordance with Reference Examples 4 to 6 based on the information disclosed in J. Biol. Chem., Oct. 27, 1995, No. 43, Vol. 270, pp. 25481-25487.
A gene optimized for E. coli (matched to E. coli codon usage) was synthesized (GenScript (NJ, USA)) based on the sequence data for a human Lp-PLA2 gene. Using the synthesized DNA as a template, a roughly 1200 bp PCR product was obtained by PCR using KOD FX (Toyobo Co., Ltd.) using as the sense primer the nucleotide sequence of SEQ ID NO: 5 in which the 42nd isoleucine was changed to the sequence of the initial methionine, with the nucleotide sequence of SEQ ID NO: 6 as the antisense primer. The resulting PCR product was digested with NdeI (Takara Bio Inc.) and BamHI (Takara Bio Inc.), and inserted into the NdeI-BamHI site of the expression vector pET-19b (Novagen) to obtain an Lp-PLA2/pET-19b expression plasmid. This expression plasmid was transformed into One shot BL21(DE3) Chemically Competent E. coli, to obtain a transformant called Lp-PLA2/pET-19b/BL21(DE3) comprising a recombinant vector containing a polynucleotide consisting of a nucleotide sequence encoding Lp-PLA2 with a histidine tag from the vector added at the N-terminus.
as §2

[1] = PLD activity (kcat/Km) of lyso-PAF-PLD and site-specific mutants against lyso-PAF; conditions: substrate lyso-PAF 0 to 5 mM, pH 7.5, 37° C.
Method: As a result, the pre-mutation PLD activity was 1385 (s^−1 mM^−1), but the mutant having G substituted for the M in the 45th position of SEQ ID NO: 9 (called M45G) and the similarly-named mutants M45A, M45L and M45D had PLD activities of 3059, 11411, 3284 and 4557 (s^−1mM^−1), respectively.
As a result, the PLD activity was 1385 (s^−1mM^−1) before the mutation, but the mutant having G substituted for F in the 257th position of […] (called F257G) and the similarly-named mutants F257E, F257R, F257K and F257W had PLD activities 1200, 1000, 1080, 1020 and 1320, respectively.
The PLD activity of the lyso-PAF-PLD mutants obtained by site-specific mutations was measured as follows. 1.211 g of Tris, 14.7 mg of calcium chloride dihydrate (Wako Pure Chemical Industries, Ltd.), 20 mL of lyso-PAF solution and 2 mL of 1% TODB solution were dissolved in 60 mL of purified water, the pH was adjusted to 7.5 (25° C.) with 1 N HCl, 4 mL of 100 U/mL choline oxidase, 4 mL of 100 U/mL peroxidase solution and 2 mL of 1% 4-AA solution were added and dissolved, and the total was brought to 100 mL with purified water to obtain a PLD activity measurement reagent for lyso-PAF (reaction reagent mixture). The lyso-PAF solution was adjusted so that the lyso-PAF concentration in the reaction reagent mixture was 0 to 5 mM. 3 mL of the reaction reagent mixture was pre-heated for 5 minutes at 37° C., and mixed with 50 μL of a solution of the lyso-PAF-PLD mutant with the introduced site-specific mutation diluted appropriately with 10 mM Tris-HCl (pH 7.5) to initiate a reaction, and the change in absorbance at 546 nm was measured for 1 minute between 8 and 9 minutes after initiation of the reaction. The activity value (μmole/min) was calculated given 36 (cm^2/μmole) as the millimolar extinction coefficient of the quinoneimine dye at 546 nm. The protein content (mg/mL) was calculated by the Bradford method using bovine serum albumin as the standard. Km and kcat were calculated by the Michaelis-Menten formula in accordance with the methods described in the aforementioned Theory and Practice on Enzymes and other Proteins [Tanpakushitsu/Kouso no kiso jikkenhou] and in Voet's Basic Biochemistry (Fourth Ed.) and the like. For purposes of calculation, the molecular weight of the enzyme was given as 33583.

With `CCCCCCCCCCCCCCCCOC[C@H](COP(=O)([O-])OCC[N+](C)(C)C)OC(C)=O` [PAF(C16), 1-O-Hexadecyl-2-acetyl-sn-glycero-3-phosphocholine] the Lp-PLA2 activity value (Lp-PLA2; sample Citrated pooled plasma) was 33.3 nmol/min/mL, the “absorbance change per minute (sensitivity)” value (“absorbance change per minute” for short) (Lp-PLA2; sample Citrated pooled plasma) was 23.5 ΔmAbs/min and the Lp-PLA2 activity value (Lp-PLA2; sample Heparin pooled plasma) was 44.3 nmol/min/mL. For the same molecule, the “absorbance change per minute” value (Lp-PLA2; sample Heparin pooled plasma) was 31.3 ΔmAbs/min, the Lp-PLA2 activity value (Lp-PLA2; sample Individual serum 16) was 94.8 nmol/min/mL and the “absorbance change per minute” value (Lp-PLA2; sample Individual serum 16) was 66.9 ΔmAbs/min. For the same molecule, the Lp-PLA2 activity value (Lp-PLA2; sample Pooled serum C) was 40.8 nmol/min/mL, the “absorbance change per minute” value (Lp-PLA2; sample Pooled serum C) was 28.8 ΔmAbs/min and the Lp-PLA2 activity value (Lp-PLA2; sample Pooled serum J042) was 40.8 nmol/min/mL. For the same molecule, the “absorbance change per minute” value (Lp-PLA2; sample Pooled serum J042) was 28.8 ΔmAbs/min, the Relative activity (Lp-PLA2; sample Citrated pooled plasma) was 100% and the Relative activity (Lp-PLA2; sample Heparin pooled plasma) was 100%. For the same molecule, the Relative activity (Lp-PLA2; sample Individual serum 16) was 100%, the Relative activity (Lp-PLA2; sample Pooled serum C) was 100% and the Relative activity (Lp-PLA2; sample Pooled serum J042) was 100%. The Lp-PLA2 activity value (rLp-PLA2) was 132.3 nmol/min/mL, the “absorbance change per minute” value (rLp-PLA2) was 93.4 ΔmAbs/min and the Relative activity (rLp-PLA2) was 100%.

For `CCCCCCCCCCCCCCCCCCOC[C@H](COP(=O)([O-])OCC[N+](C)(C)C)OC(C)=O` [PAF(C18), 1-O-Octadecyl-2-acetyl-sn-glycero-3-phosphocholine], the Lp-PLA2 activity value (Lp-PLA2; sample Citrated pooled plasma) was 27.8 nmol/min/mL, the “absorbance change per minute” value (Lp-PLA2; sample Citrated pooled plasma) was 19.6 ΔmAbs/min and the Lp-PLA2 activity value (Lp-PLA2; sample Heparin pooled plasma) was 38.7 nmol/min/mL. The “absorbance change per minute” value (Lp-PLA2; sample Heparin pooled plasma) was 27.3 ΔmAbs/min, the Lp-PLA2 activity value (Lp-PLA2; sample Individual serum 16) was 79.3 nmol/min/mL and the “absorbance change per minute” value (Lp-PLA2; sample Individual serum 16) was 56.0 ΔmAbs/min. For the same molecule, the Lp-PLA2 activity value (Lp-PLA2; sample Pooled serum C) was 35.6 nmol/min/mL, the “absorbance change per minute” value (Lp-PLA2; sample Pooled serum C) was 25.1 ΔmAbs/min and the Lp-PLA2 activity value (Lp-PLA2; sample Pooled serum J042) was 35.4 nmol/min/mL. For the same molecule, the “absorbance change per minute” value (Lp-PLA2; sample Pooled serum J042) was 25.0 ΔmAbs/min, the Relative activity (Lp-PLA2; sample Citrated pooled plasma) was 83% and the Relative activity (Lp-PLA2; sample Heparin pooled plasma) was 87%. It also gave a Relative activity (Lp-PLA2; sample Individual serum 16) of 84%, a Relative activity (Lp-PLA2; sample Pooled serum C) of 87% and a Relative activity (Lp-PLA2; sample Pooled serum J042) of 87%. The Lp-PLA2 activity value (rLp-PLA2) was 74.1 nmol/min/mL, the “absorbance change per minute” value (rLp-PLA2) was 52.3 ΔmAbs/min and the Relative activity (rLp-PLA2) was 56%.

B1: M45G: lyso-PAF-PLD mutant, G substituted for M in the 45th position of SEQ ID NO: 9 (protein)
chain: MTTRTTDNPWLDARVLNMAHAGGENEAPANTLYAFKRAVKLGANGLELDVQSTKDDQLVVIHNATVDQTTDGTGKVRDLTFEQVHELDAAYNFIPGRHAVPGEPPESYPLRGVRTGEKKPPPGYQPSDFAIPKLADVLEAFPRTPINIEIKGTSDADIPSFLHNAKLLARLLKKTGRTDFIVTSFNDLAVAKFHLLAPDIPIAPGMAGLAAYFLLGVKPMHGTVALQIPVRYQGLEIATPEFIRRAHADGYAVHVWFSGTAPDDEATYNRIIDSCADGLMPAYPALLERILDERGIERPGRPGVDPCG
With B1 the Km [1] was 27 µM and the kcat [1] was 82 s⁻¹.
